Assay results reported in patent US10538555B2, “Macrocyclic inhibitors of the PD-1/PD-L1 and CD80(B7-1)/PD-L1 protein/protein interactions” (BRISTOL-MYERS SQUIBB COMPANY, priority 2014, dated 2020).
Where a SMILES comes first, the peptide text is derived from it. Bridges are numbered along the chain shown (N, C = ends). [ ]: non-standard residue; d: D form. Trp(1-CH2COOH) = N[C@@H](Cc1cn(CC(=O)O)c2ccccc12)C(=O)O; Trp(2-Me) = Cc1[nH]c2ccccc2c1C[C@H](N)C(=O)O; 1Nal = N[C@@H](Cc1cccc2ccccc12)C(=O)O; Pro(4R-Me) = C[C@H]1CN[C@H](C(=O)O)C1; Hyp = O=C(O)[C@@H]1C[C@@H](O)CN1; NMeNle = CCCC[C@H](NC)C(=O)O; Pip = O=C(O)[C@@H]1CCCCN1; dPip = O=C(O)[C@H]1CCCCN1; NMeA = CN[C@@H](C)C(=O)O; Dab = NCC[C@H](N)C(=O)O; Dap = NC[C@H](N)C(=O)O

Molecular target: T1, Human PD-L1/PD-1 (Homo sapiens, UniProt Q9NZQ7)
T1 construct: TVMV protease cleavage site (C); made in house; host or cells: HEK293T cells
Test: HTRF Human PD-L1/PD-1 binding assay (PD-1-Ig/PD-L1-His)
Settings: PD-L1-His 10 nM, PD-1-Ig 20 nM; class symbol; read-out: HTRF Human PD-L1/PD-1 Binding Assay IC50 Range
Summary of the method: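 HTRF read-out (665/620 nm ratio) after 30 min equilibration with Eu-cryptate anti-Ig mAb (1 nM) and APC anti-His mAb (20 nM). Peptides preincubated 15 min with PD-L1-His (10 nM), then PD-1-Ig (20 nM) added for 15 min.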

T1 sequence (Q9NZQ7 with tags, fused parts or gaps): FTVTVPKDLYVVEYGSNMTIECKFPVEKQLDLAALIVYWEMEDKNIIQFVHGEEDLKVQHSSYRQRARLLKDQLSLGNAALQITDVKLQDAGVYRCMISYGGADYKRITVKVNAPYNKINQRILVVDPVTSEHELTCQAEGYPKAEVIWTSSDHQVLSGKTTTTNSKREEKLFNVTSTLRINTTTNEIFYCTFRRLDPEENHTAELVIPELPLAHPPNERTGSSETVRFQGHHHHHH

Compound | IC50 [nM]
CCCC[C@H]1C(=O)N(C)[C@@H](CCCC)C(=O)N[C@@H](CCC(=O)O)C(=O)N[C@H](C(=O)NCC(N)=O)CSCC(=O)N[C@@H](Cc2ccc(O)cc2)C(=O)N2C[C@H](O)C[C@H]2C(=O)N[C@@H](CC(N)=O)C(=O)N2CCC[C@H]2C(=O)N[C@@H](Cc2cnc[nH]2)C(=O)N[C@@H](CCC(=O)O)C(=O)N2C[C@H](O)C[C@H]2C(=O)N[C@@H](Cc2c[nH]c3ccccc23)C(=O)N[C@@H](CO)C(=O)N[C@@H](Cc2c[nH]c3ccccc23)C(=O)N1C [Example 1283] ({CH2CO}-Y[Hyp]NPHE[Hyp]WSW[NMeNle][NMeNle]ECG-NH2; thioether N-14) | 10 to 99.9
CCCC[C@H]1C(=O)N(C)[C@@H](CCCC)C(=O)N[C@@H](C)C(=O)N[C@H](C(=O)NCC(N)=O)CSCC(=O)N[C@@H](Cc2ccc(O)cc2)C(=O)N(C)[C@@H](C)C(=O)N[C@@H](CC(N)=O)C(=O)N2CCC[C@H]2C(=O)N[C@@H](Cc2cnc[nH]2)C(=O)N[C@@H](CCC(N)=O)C(=O)N2C[C@H](O)C[C@H]2C(=O)N[C@@H](Cc2c[nH]c3ccccc23)C(=O)N[C@@H](CO)C(=O)N[C@@H](Cc2c(C)[nH]c3ccccc23)C(=O)N1C [Example 1285] ({CH2CO}-Y[NMeA]NPHQ[Hyp]WS[Trp(2-Me)][NMeNle][NMeNle]ACG-NH2; thioether N-14) | 1 to 9.9
CCCC[C@H]1C(=O)N(C)[C@@H](CCCC)C(=O)N[C@@H](C)C(=O)N[C@H](C(=O)NCC(N)=O)CSCC(=O)N[C@@H](Cc2ccc(O)cc2)C(=O)N(C)[C@@H](C)C(=O)N[C@@H](CC(N)=O)C(=O)N2CCC[C@H]2C(=O)N[C@@H](Cc2cnc[nH]2)C(=O)N[C@@H](CCC(N)=O)C(=O)N2C[C@H](O)C[C@H]2C(=O)N[C@@H](Cc2c[nH]c3ccccc23)C(=O)N[C@@H](CO)C(=O)N[C@@H](Cc2cccc3ccccc23)C(=O)N1C [Example 1289] ({CH2CO}-Y[NMeA]NPHQ[Hyp]WS[1Nal][NMeNle][NMeNle]ACG-NH2; thioether N-14) | 1 to 9.9
CCCC[C@H]1C(=O)N(C)[C@@H](CCCC)C(=O)N[C@@H](CCC(=O)O)C(=O)N[C@H](C(=O)NCC(N)=O)CSCC(=O)N[C@@H](Cc2ccc(O)cc2)C(=O)N2CCCC[C@@H]2C(=O)N[C@@H](CC(N)=O)C(=O)N2CCC[C@H]2C(=O)N[C@@H](CN)C(=O)N[C@@H](CCC(=O)O)C(=O)N2C[C@H](O)C[C@H]2C(=O)N[C@@H](Cc2c[nH]c3ccccc23)C(=O)N[C@@H](CO)C(=O)N[C@@H](Cc2cn(CC(=O)O)c3ccccc23)C(=O)N1C [Example 1290] ({CH2CO}-Y[dPip]NP[Dap]E[Hyp]WS[Trp(1-CH2COOH)][NMeNle][NMeNle]ECG-NH2; thioether N-14) | 10 to 99.9
CCCC[C@H]1C(=O)N(C)[C@@H](CCCC)C(=O)N[C@@H](CN)C(=O)N[C@H](C(=O)NCC(N)=O)CSCC(=O)N[C@@H](Cc2ccc(O)cc2)C(=O)N2CCCC[C@H]2C(=O)N[C@@H](CC(N)=O)C(=O)N2CCC[C@H]2C(=O)N[C@@H](CN)C(=O)N[C@@H](CC(C)C)C(=O)N2C[C@H](C)C[C@H]2C(=O)N[C@@H](Cc2c[nH]c3ccccc23)C(=O)N[C@@H](CCN)C(=O)N[C@@H](Cc2cn(CC(=O)O)c3ccccc23)C(=O)N1C [Example 1291] ({CH2CO}-Y[Pip]NP[Dap]L[Pro(4R-Me)]W[Dab][Trp(1-CH2COOH)][NMeNle][NMeNle][Dap]CG-NH2; thioether N-14) | 1 to 9.9
CCCC[C@H]1C(=O)N(C)[C@@H](CCCC)C(=O)N[C@@H](C)C(=O)N[C@H](C(=O)NCC(N)=O)CSCC(=O)N[C@@H](Cc2ccc(O)cc2)C(=O)N2CCCC[C@H]2C(=O)N[C@@H](CC(=O)O)C(=O)N2CCC[C@H]2C(=O)N[C@@H](Cc2cnc[nH]2)C(=O)N[C@@H](CCC(N)=O)C(=O)N2C[C@H](O)C[C@H]2C(=O)N[C@@H](Cc2c[nH]c3ccccc23)C(=O)N[C@@H](CO)C(=O)N[C@@H](Cc2cn(CC(=O)O)c3ccccc23)C(=O)N1C [Example 1292] ({CH2CO}-Y[Pip]DPHQ[Hyp]WS[Trp(1-CH2COOH)][NMeNle][NMeNle]ACG-NH2; thioether N-14) | 10 to 99.9
CCCC[C@H]1C(=O)N(C)[C@@H](CCCC)C(=O)N[C@@H](CC(C)C)C(=O)N[C@H](C(=O)NCC(N)=O)CSCC(=O)N[C@@H](Cc2ccc(O)cc2)C(=O)N2CCCC[C@H]2C(=O)N[C@@H](CC(=O)O)C(=O)N2CCC[C@H]2C(=O)N[C@@H](Cc2cnc[nH]2)C(=O)N[C@@H](CCC(N)=O)C(=O)N2C[C@H](O)C[C@H]2C(=O)N[C@@H](Cc2c[nH]c3ccccc23)C(=O)N[C@@H](CO)C(=O)N[C@@H](Cc2cn(CC(=O)O)c3ccccc23)C(=O)N1C [Example 1293] ({CH2CO}-Y[Pip]DPHQ[Hyp]WS[Trp(1-CH2COOH)][NMeNle][NMeNle]LCG-NH2; thioether N-14) | 10 to 99.9
CCCC[C@H]1C(=O)N(C)[C@@H](CCCC)C(=O)N[C@@H](CCN)C(=O)N[C@H](C(=O)NCC(N)=O)CSCC(=O)N[C@@H](Cc2ccc(O)cc2)C(=O)N2CCCC[C@H]2C(=O)N[C@@H](CC(=O)O)C(=O)N2CCC[C@H]2C(=O)N[C@@H](Cc2cnc[nH]2)C(=O)N[C@@H](CCC(=O)O)C(=O)N2C[C@H](O)C[C@H]2C(=O)N[C@@H](Cc2c[nH]c3ccccc23)C(=O)N[C@@H](CO)C(=O)N[C@@H](Cc2cn(CC(=O)O)c3ccccc23)C(=O)N1C [Example 1294] ({CH2CO}-Y[Pip]DPHE[Hyp]WS[Trp(1-CH2COOH)][NMeNle][NMeNle][Dab]CG-NH2; thioether N-14) | 10 to 99.9
CCCC[C@H]1C(=O)N(C)[C@@H](CCCC)C(=O)N[C@@H](CN)C(=O)N[C@H](C(=O)NCC(N)=O)CSCC(=O)N[C@@H](Cc2ccc(O)cc2)C(=O)N2CCCC[C@H]2C(=O)N[C@@H](CC(N)=O)C(=O)N2CCC[C@H]2C(=O)N[C@@H](CN)C(=O)N[C@@H](CCC(=O)O)C(=O)N2C[C@H](O)C[C@H]2C(=O)N[C@@H](Cc2c[nH]c3ccccc23)C(=O)N[C@@H](CCN)C(=O)N[C@@H](Cc2cn(CC(=O)O)c3ccccc23)C(=O)N1C [Example 1295] ({CH2CO}-Y[Pip]NP[Dap]E[Hyp]W[Dab][Trp(1-CH2COOH)][NMeNle][NMeNle][Dap]CG-NH2; thioether N-14) | 10 to 99.9
CCCC[C@H]1C(=O)N(C)[C@@H](CCCC)C(=O)N[C@@H](CC(C)C)C(=O)N[C@H](C(=O)NCC(N)=O)CSCC(=O)N[C@@H](Cc2ccc(O)cc2)C(=O)N2CCCC[C@@H]2C(=O)N[C@@H](CC(=O)O)C(=O)N2CCC[C@H]2C(=O)N[C@@H](Cc2cnc[nH]2)C(=O)N[C@@H](CCCCN)C(=O)N2C[C@H](O)C[C@H]2C(=O)N[C@@H](Cc2c[nH]c3ccccc23)C(=O)N[C@@H](CCCCN)C(=O)N[C@@H](Cc2cn(CC(=O)O)c3ccccc23)C(=O)N1C [Example 1296] ({CH2CO}-Y[dPip]DPHK[Hyp]WK[Trp(1-CH2COOH)][NMeNle][NMeNle]LCG-NH2; thioether N-14) | 1 to 9.9
CCCC[C@H]1C(=O)N(C)[C@@H](CCCC)C(=O)N[C@@H](CC(C)C)C(=O)N[C@H](C(=O)NCC(N)=O)CSCC(=O)N[C@@H](Cc2ccc(O)cc2)C(=O)N2CCCC[C@H]2C(=O)N[C@@H](CC(N)=O)C(=O)N2CCC[C@H]2C(=O)N[C@@H](CN)C(=O)N[C@@H](CC(C)C)C(=O)N2C[C@H](O)C[C@H]2C(=O)N[C@@H](Cc2c[nH]c3ccccc23)C(=O)N[C@@H](CCN)C(=O)N[C@@H](Cc2cn(CC(=O)O)c3ccccc23)C(=O)N1C [Example 1297] ({CH2CO}-Y[Pip]NP[Dap]L[Hyp]W[Dab][Trp(1-CH2COOH)][NMeNle][NMeNle]LCG-NH2; thioether N-14) | 1 to 9.9
CCCC[C@H]1C(=O)N(C)[C@@H](CCCC)C(=O)N[C@@H](CN)C(=O)N[C@H](C(=O)NCC(N)=O)CSCC(=O)N[C@@H](Cc2ccc(O)cc2)C(=O)N2CCCC[C@H]2C(=O)N[C@@H](CC(N)=O)C(=O)N2CCC[C@H]2C(=O)N[C@@H](Cc2cnc[nH]2)C(=O)N[C@@H](CCC(N)=O)C(=O)N2C[C@H](O)C[C@H]2C(=O)N[C@@H](Cc2c[nH]c3ccccc23)C(=O)N[C@@H](CCN)C(=O)N[C@@H](Cc2cn(CC(=O)O)c3ccccc23)C(=O)N1C [Example 1298] ({CH2CO}-Y[Pip]NPHQ[Hyp]W[Dab][Trp(1-CH2COOH)][NMeNle][NMeNle][Dap]CG-NH2; thioether N-14) | 1 to 9.9
CCCC[C@H]1C(=O)N(C)[C@@H](CCCC)C(=O)N[C@@H](CC(C)C)C(=O)N[C@H](C(=O)NCC(N)=O)CSCC(=O)N[C@@H](Cc2ccc(O)cc2)C(=O)N2CCCC[C@H]2C(=O)N[C@@H](CC(N)=O)C(=O)N2CCC[C@H]2C(=O)N[C@@H](CN)C(=O)N[C@@H](CCC(=O)O)C(=O)N2C[C@H](O)C[C@H]2C(=O)N[C@@H](Cc2c[nH]c3ccccc23)C(=O)N[C@@H](CCN)C(=O)N[C@@H](Cc2cn(CC(=O)O)c3ccccc23)C(=O)N1C [Example 1299] ({CH2CO}-Y[Pip]NP[Dap]E[Hyp]W[Dab][Trp(1-CH2COOH)][NMeNle][NMeNle]LCG-NH2; thioether N-14) | 1 to 9.9
CCCC[C@H]1C(=O)N(C)[C@@H](CCCC)C(=O)N[C@@H](CN)C(=O)N[C@H](C(=O)NCC(N)=O)CSCC(=O)N[C@@H](Cc2ccc(O)cc2)C(=O)N2CCCC[C@H]2C(=O)N[C@@H](CC(N)=O)C(=O)N2CCC[C@H]2C(=O)N[C@@H](CN)C(=O)N[C@@H](CCC(=O)O)C(=O)N2C[C@H](O)C[C@H]2C(=O)N[C@@H](Cc2c[nH]c3ccccc23)C(=O)N[C@@H](CO)C(=O)N[C@@H](Cc2cn(CC(=O)O)c3ccccc23)C(=O)N1C [Example 1300] ({CH2CO}-Y[Pip]NP[Dap]E[Hyp]WS[Trp(1-CH2COOH)][NMeNle][NMeNle][Dap]CG-NH2; thioether N-14) | 1 to 9.9
CCCC[C@H]1C(=O)N(C)[C@@H](CCCC)C(=O)N[C@@H](CN)C(=O)N[C@H](C(=O)NCC(N)=O)CSCC(=O)N[C@@H](Cc2ccc(O)cc2)C(=O)N2CCCC[C@H]2C(=O)N[C@@H](CC(N)=O)C(=O)N2CCC[C@H]2C(=O)N[C@@H](Cc2cnc[nH]2)C(=O)N[C@@H](CCC(N)=O)C(=O)N2C[C@H](O)C[C@H]2C(=O)N[C@@H](Cc2c[nH]c3ccccc23)C(=O)N[C@@H](CCN)C(=O)N[C@@H](Cc2cn(CC(=O)O)c3ccccc23)C(=O)N1C [Example 1301] ({CH2CO}-Y[Pip]NPHQ[Hyp]W[Dab][Trp(1-CH2COOH)][NMeNle][NMeNle][Dap]CG-NH2; thioether N-14) | 10 to 99.9
